Calls of active or inactive are those of the source. The calls are words filed in the database; no cut-off is given here.
How the values were obtained:
[1] = target: Vascular endothelial growth factor receptor 2 (Homo sapiens) (UniProt P35968); test: Inhibition of VEGFR2 phosphorylation in human SK-OV-3 cells at 5 uM incubated for 24 hrs by Western blot analysis; assay type: cell-based
A-431 = test: Cytotoxicity against human A-431 cells assessed as inhibition of cell growth incubated for 72 hrs by CCK8 assay; assay type: functional, cell-based; conditions: A-431, 72 h
CAL-27 = test: Cytotoxicity against human CAL-27 cells assessed as inhibition of cell growth incubated for 72 hrs by CCK8 assay; assay type: functional, cell-based; conditions: CAL-27, 72 h
MIA PaCa-2 = test: Cytotoxicity against human MIA PaCa-2 cells assessed as inhibition of cell growth incubated for 72 hrs by CCK8 assay; assay type: functional, cell-based; conditions: MIA PaCa-2, 72 h
SK-OV-3 [2] = test: Inhibition of cell invasion in human SK-OV-3 cells incubated for 24 hrs by crystal violet staining based transwell invasion assay; assay type: functional; conditions: dose 5.0 µM
SK-OV-3/CDDP = test: Cytotoxicity against human SK-OV-3/CDDP cells assessed as inhibition of cell proliferation incubated for 72 hrs by CCK8 assay; assay type: functional, cell-based
A549 = test: Cytotoxicity against human A549 cells assessed as inhibition of cell growth incubated for 72 hrs by CCK8 assay; assay type: functional, cell-based; conditions: A549, 72 h
MCF7 = test: Cytotoxicity against human MCF7 cells assessed as inhibition of cell growth incubated for 72 hrs by CCK8 assay; assay type: functional, cell-based; conditions: MCF7, 72 h
MKN-45 = test: Cytotoxicity against human MKN-45 cells assessed as inhibition of cell growth incubated for 72 hrs by CCK8 assay; assay type: functional, cell-based; conditions: MKN-45, 72 h
SK-OV-3 [3] = test: Inhibition of cell migration in human SK-OV-3 cells at 5 uM incubated for 24 hrs by microscope based wound healing assay; assay type: functional
HCCLM3 = test: Cytotoxicity against human HCCLM3 cells assessed as inhibition of cell growth incubated for 72 hrs by CCK8 assay; assay type: functional, cell-based; conditions: HCCLM3, 72 h
SK-OV-3 [4] = test: Antitumor activity against CD44 positive human SK-OV-3 cells assessed as reduction in cell viability incubated for 72 hrs by CCK8 assay; assay type: functional, cell-based; conditions: SK-OV-3, 72 h
HeLa = test: Cytotoxicity against human HeLa cells assessed as inhibition of cell growth incubated for 72 hrs by CCK8 assay; assay type: functional, cell-based
SK-OV-3 [5] = test: Inhibition of AKT phosphorylation in human SK-OV-3 cells at 5 uM incubated for 24 hrs by Western blot analysis; assay type: cell-based
MDA-MB-231 = test: Cytotoxicity against human MDA-MB-231 cells assessed as inhibition of cell growth incubated for 72 hrs by CCK8 assay; assay type: functional, cell-based; conditions: MDA-MB-231, 72 h
ACHN = test: Cytotoxicity against human ACHN cells assessed as inhibition of cell growth incubated for 72 hrs by CCK8 assay; assay type: functional, cell-based
A2780 = test: Antitumor activity against CD44 negative human A2780 cells assessed as reduction in cell viability incubated for 72 hrs by CCK8 assay; assay type: functional, cell-based; conditions: A2780, 72 h
SK-OV-3 [6] = test: Inhibition of tumor sphere formation in agarose-treated human SK-OV-3 cells assessed as fold decrease in number of formed spheres by imaging analysis; assay type: functional
DU-145 = test: Cytotoxicity against human DU-145 cells assessed as inhibition of cell growth incubated for 72 hrs by CCK8 assay; assay type: functional, cell-based; conditions: DU-145, 72 h
SK-OV-3 [7] = test: Inhibition of tumor sphere formation in agarose-treated human SK-OV-3 cells assessed as decrease in number of formed spheres at 10 nM incubated for 9 days by imaging analysis; assay type: functional, cell-based; conditions: time 9.0 day

Vascular endothelial growth factor receptor 2 (Homo sapiens), sequence (P35968 whole entry): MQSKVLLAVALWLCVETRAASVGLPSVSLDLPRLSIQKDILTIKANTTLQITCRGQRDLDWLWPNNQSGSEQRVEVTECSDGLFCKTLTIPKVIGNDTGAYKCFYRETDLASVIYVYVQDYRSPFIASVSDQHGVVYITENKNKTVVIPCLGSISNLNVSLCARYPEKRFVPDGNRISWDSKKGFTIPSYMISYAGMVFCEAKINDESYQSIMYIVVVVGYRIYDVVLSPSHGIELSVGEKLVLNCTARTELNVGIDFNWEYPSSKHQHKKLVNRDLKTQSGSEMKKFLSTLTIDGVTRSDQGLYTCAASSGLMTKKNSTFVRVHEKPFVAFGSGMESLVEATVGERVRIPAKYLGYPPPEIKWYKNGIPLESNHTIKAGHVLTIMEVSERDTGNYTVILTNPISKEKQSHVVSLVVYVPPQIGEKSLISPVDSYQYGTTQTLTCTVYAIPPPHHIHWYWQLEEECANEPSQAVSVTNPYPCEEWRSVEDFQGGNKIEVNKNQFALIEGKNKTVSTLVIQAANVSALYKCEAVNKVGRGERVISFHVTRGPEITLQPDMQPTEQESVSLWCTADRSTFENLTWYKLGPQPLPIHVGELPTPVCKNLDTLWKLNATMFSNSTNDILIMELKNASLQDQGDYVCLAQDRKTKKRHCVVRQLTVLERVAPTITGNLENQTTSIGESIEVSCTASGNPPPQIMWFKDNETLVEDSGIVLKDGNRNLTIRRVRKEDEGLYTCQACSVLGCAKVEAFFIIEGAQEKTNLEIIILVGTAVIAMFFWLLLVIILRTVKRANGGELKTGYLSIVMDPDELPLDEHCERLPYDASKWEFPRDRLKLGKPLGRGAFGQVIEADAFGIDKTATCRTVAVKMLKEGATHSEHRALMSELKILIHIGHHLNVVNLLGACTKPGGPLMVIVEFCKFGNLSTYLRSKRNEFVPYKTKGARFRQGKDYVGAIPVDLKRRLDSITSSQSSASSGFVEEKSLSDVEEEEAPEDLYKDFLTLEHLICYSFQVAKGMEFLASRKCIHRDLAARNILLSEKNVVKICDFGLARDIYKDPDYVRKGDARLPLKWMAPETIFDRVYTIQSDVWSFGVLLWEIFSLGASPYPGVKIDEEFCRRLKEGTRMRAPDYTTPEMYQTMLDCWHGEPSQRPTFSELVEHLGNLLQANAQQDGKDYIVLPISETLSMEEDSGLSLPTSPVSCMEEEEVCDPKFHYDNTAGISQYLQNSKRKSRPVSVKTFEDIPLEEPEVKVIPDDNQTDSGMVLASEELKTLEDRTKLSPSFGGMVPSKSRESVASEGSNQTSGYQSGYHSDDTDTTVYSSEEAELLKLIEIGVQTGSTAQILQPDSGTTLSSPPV

| inhibition [1] | IC50 (SK-OV-3 [4]) [µM] | IC50 (A2780) [µM] | SMILES | IC50 (A-431) [µM] | IC50 (CAL-27) [µM] | IC50 (MIA PaCa-2) [µM] | inhibition (SK-OV-3 [2]) | IC50 (SK-OV-3/CDDP) [µM] | IC50 (A549) [µM] | IC50 (MCF7) [µM] | IC50 (MKN-45) [µM] | inhibition (SK-OV-3 [3]) | IC50 (HCCLM3) [µM] | IC50 (HeLa) [µM] | inhibition (SK-OV-3 [5]) | IC50 (MDA-MB-231) [µM] | IC50 (ACHN) [µM] | fold change (FC) (SK-OV-3 [6]) | IC50 (DU-145) [µM] | inhibition (SK-OV-3 [7]) |
| --- | --- | --- | --- | --- | --- | --- | --- | --- | --- | --- | --- | --- | --- | --- | --- | --- | --- | --- | --- | --- |
| Active | 4.39 | 0.11 | CC[C@@H](C(=O)[O-])C1CC[C@H](C)C([C@@H](C)[C@H](O)[C@H](C)C(=O)[C@H](CC)C2O[C@]3(C=C[C@@H](NC(=O)CCSSc4ccccc4)[C@]4(CC[C@@](C)(C5CC[C@](O)(CC)[C@H](C)O5)O4)O3)[C@H](C)C[C@@H]2C)O1.[Na+] (stereo not given in full) | 2.95 | 3.73 | 1.14 | Dose-Dependent Effect | 4.45 | 14.4 | 8.23 | 1.47 | Active | 1.33 | 3.76 | Active | 0.98 | 7.37 | 4.6 | 30.9 |  |
|  |  |  | CC(=O)O[C@H]1C(=O)[C@@]2(C)[C@H]([C@H](OC(=O)c3ccccc3)[C@]3(O)C[C@H](OC(=O)[C@H](O)[C@@H](NC(=O)c4ccccc4)c4ccccc4)C(C)=C1C3(C)C)[C@]1(OC(C)=O)CO[C@@H]1C[C@@H]2O |  |  |  |  |  |  |  |  |  |  |  |  |  |  |  |  | Active |

Source: ChEMBL document CHEMBL5614385, “A peptide-salinomycin conjugate with a bystander effect reduces the stemness characteristics of ovarian cancer cells and enhances drug sensitivity” (Eur J Med Chem, 2024)
